According to paper PMC10307035, “Antiviral activity of singlet oxygen-photogenerating perylene compounds against SARS-CoV-2: Interaction with the viral envelope and photodynamic virion inactivation” (Virus Research, 2023):

Legend:
[1] = tested on: feline infectious peritonitis virus (FIPV); format: cell-based, feline coronavirus (FCoV); conditions: 0–10 µM
Vero cells = test: Light-induced cytotoxicity in Vero cells; format: cell-based, African Green Monkey; conditions: 0–10 µM, 465–480 nm 10 min, then 24 h in the dark
Method: To determine the light-induced cytotoxicity of the tested compounds, Vero cells were cultured for 24 h in 96-well plates to form a confluent monolayer, and then were treated with the tested compounds at concentrations of 0 to 10 µM. Then, the compound-treated cells were irradiated for 10 min at RT with LEDs (465–480 nm) having an approximate power density of 30 mW/cm^2 (device description in Fig. S7). As a negative control, compound-treated cells were incubated for 10 min in the dark at RT. Subsequently, both irradiated and non-irradiated cell monolayers were incubated in the dark at 37 °C for 24 h. Then, the cell culture medium was aspirated and the potential cytotoxicity of the tested perylene derivatives was determined based on cell viability using Cell Counting Kit-8 (Dojindo Molecular Technologies, Munich, Germany) according to the manufacturer's instructions.

[2] = tested on: SARS-CoV-2 (Wuhan strain); test: Viral titer inhibition assay, SARS-CoV-2 in CaCo-2 cells; format: cell-based; conditions: 0–10 µM
[3] = ROS generation measurement with DMA trap in DMSO; format: physicochemical
Method: ROS generation was also estimated using 9,10-dimethylanthracene (DMA), another specific fluorescent singlet oxygen trap, which forms nonfluorescent 9,10-dimethylanthracene endoperoxide after ROS-mediated DMA oxidation. Compounds (0, 0.1, 1, and 10 µM) in DMSO were mixed with DMA (0.5 µM), and these solutions were irradiated for 10 min at room temperature (RT) with light-emitting diodes (LED, 465–480 nm) having approximate power density of 30 mW/cm^2 (device description in Fig. S7). DMA fluorescence intensity was measured at ex/em wavelengths of 370/432 nm in the presence or absence of α-tocopherol (3 µg/mL) as an antioxidant. Singlet oxygen generation was accompanied by a decreased fluorescence signal of the DMA probe ([Zeng et al., 2020]).

[4] = Fluorescence quantum yield determination; format: physicochemical; conditions: in DMSO, relative to rhodamin B
Method: The samples’ steady-state fluorescence characteristics were measured in L-format using a Chronos DFD Fluorescence spectrometer (ISS, USA) equipped with a 300 W Cermax xenon arc lamp (ISS, USA), a concave holographic grating monochromator, and a PMT detector. The required amount of each sample was diluted in DMSO and measured in a 1-cm quartz cuvette at a constant temperature of 25 °C. The resulting data were evaluated using Vinci software (ISS, USA) and correlated to the utilized optical configuration.
Absorption spectra were measured using a high-performance Specord S 600 diode spectrophotometer (Jena Analyst, DE). The required amount of each sample was diluted in DMSO, added to 1-cm quartz cuvette, and measured within the selected absorbance spectrum range, against pure DMSO as a blank, at a constant temperature of 25 °C. The results were evaluated using WinASPECT® software (Jena Analyst, DE).
Fluorescence quantum yield was determined following a previously described protocol ([Kozma et al., 2005]; [Magde et al., 1999]; [Williams et al., 1983]). The kinetics of the incorporation of compounds into liposome membrane models was determined using steady-state fluorescence spectroscopy at a constant excitation and emission wavelength, according to the corresponding sample excitation and emission maxima. We added 50 μL of LNP suspension to 0.1 mM of the analyte in PBS, and monitored the increase of fluorescence intensity over the time range from 0 to 1400s. The preparation and characterization of the liposomal suspension is described in the supporting information (Fig. S4).
1. Supplementary material and methods
1.1. Fluorescence quantum yield (QY) determination
The steady-state fluorescence and absorption data were used for quantum yield determination. QY was determined relative to a reference compound, rhodamin B. Absorbance in the range of 0.01–0.1 was used to calculate the QY. We plotted two calibration curves of integrated emission fluorescence intensity as a function of sample absorbance. […]

SARS-CoV-2 = test: Photodynamic inactivation of SARS-CoV-2 virions; format: cell-based
Method: Virus in DMEM (titer of 10^5 PFU/mL) was mixed with the compounds (0–10 µM) in a microtiter plate, in triplicate, and irradiated for 10 min at RT with LEDs (465–480 nm) having an approximate power density of 30 mW/cm^2 (device description in supplement). As a negative control, virus was incubated for 10 min in the dark at RT. Subsequently, both irradiated and non-irradiated virus samples were incubated in the dark at 37 °C for 60 min. All manipulation with the samples before and after this incubation, i.e., mixing the compound with the virus, pipetting into a microtiter plate, etc., were performed in daylight. Viral titers were determined by plaque assays (performed also in daylight) and expressed as PFU/mL, as previously described ([Stefanik et al., 2021]). To eliminate the influence of daylight on compound activity, the whole experiment, including all manipulation with samples, was performed in a dark room under red light. The virus sample was mixed with the indicated compounds at concentrations from 0 to 10 μM or 100 μM, incubated for 60 min at 37 °C and virus viability was evaluated using a plaque assay (Fig. 9A).

[5] = Spectrofluorometric analysis of interaction with liposomes; format: physicochemical; conditions: 10 µM in PBS

CC(C)(C)C(=O)OCn1c(=O)c(C#Cc2ccc3c4cccc5cccc(c6cccc2c63)c54)cn(CC(=O)N(CCO)CCO)c1=O [Compound 13]
replication of FIPV in CRFK cells [1]: potently suppressed the replication | effect of blue light irradiation on cytotoxicity (Vero cells): dramatically increased | anti-SARS-CoV-2 activity in CaCo-2 cells [2]: sub-micromolar | ROS generation, DMA trap, under blue light ([3]; 465–480 nm, 30 mW/cm^2, 10 min): significant bleaching | ROS generation, DMA trap, in the dark or with α-tocopherol ([3]; 10 min, dark or α-tocopherol (3 µg/mL)): no/limited bleaching | fluorescence quantum yield [4]: 90% | antiviral effect under red light only (SARS-CoV-2; 100 µM, dark room, red light, 60 min at 37 °C): no antiviral effect | antiviral activity after blue light irradiation of virus-compound mixture (SARS-CoV-2; 465–480 nm, 30 mW/cm^2, 10 min, then 60 min at 37 °C in the dark, plaque assay): low-nanomolar | antiviral activity under red light only (SARS-CoV-2; up to 10 µM, dark room, red light, 60 min at 37 °C): completely disappeared | penetration into liposomal membranes (in words) ([5]; EPC/Chol 70/30 mol% liposomes): penetrated the liposomal membranes very quickly and efficiently | steady-state fluorescence signal after mixing with liposomes ([5]; at 520 nm, after 1400 s): about 10^5 CPS
